# Assay results: the supplement of paper PMC11451515
# System: SEM cells
# Experiment: cell viability relative to DMSO control; higher = less cytotoxic
# Details: 48 h
# Outline: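 Three leukemia lines were tested: NOMO1 and SEM at 500 cells/well and P12-Ichikawa at 1000 cells/well. Each was adapted for at least four passages in each medium and seeded in 5 μl in 1536-well plates, and library compounds in DMSO were pin-dosed from 47 μM to 0.79 nM in 11 threefold steps. After 48 h at 37°C, CellTiter-Glo One luminescence was read. Viability is a percentage relative to DMSO wells on each plate, with cell-free wells as background.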
# [1] = HPLM + 10% dialyzed FBS, 0.000781 µM
# [2] = HPLM + 10% dialyzed FBS, 0.00234 µM
# [3] = HPLM + 10% dialyzed FBS, 0.00702 µM
# [4] = HPLM + 10% dialyzed FBS, 0.0211 µM
# [5] = HPLM + 10% dialyzed FBS, 0.0632 µM
# [6] = HPLM + 10% dialyzed FBS, 0.19 µM
# [7] = HPLM + 10% dialyzed FBS, 0.569 µM
# [8] = HPLM + 10% dialyzed FBS, 1.71 µM
# [9] = HPLM + 10% dialyzed FBS, 5.12 µM
# [10] = HPLM + 10% dialyzed FBS, 15.4 µM
# [11] = HPLM + 10% dialyzed FBS, 46.1 µM
# [12] = RPMI 5 mM glucose + 10% FBS, 0.000781 µM
# [13] = RPMI 5 mM glucose + 10% FBS, 0.00234 µM
# [14] = RPMI 5 mM glucose + 10% FBS, 0.00702 µM
# [15] = RPMI 5 mM glucose + 10% FBS, 0.0211 µM
# [16] = RPMI 5 mM glucose + 10% FBS, 0.0632 µM
# [17] = RPMI 5 mM glucose + 10% FBS, 0.19 µM
# [18] = RPMI 5 mM glucose + 10% FBS, 0.569 µM
# [19] = RPMI 5 mM glucose + 10% FBS, 1.71 µM
# [20] = RPMI 5 mM glucose + 10% FBS, 5.12 µM
# [21] = RPMI 5 mM glucose + 10% FBS, 15.4 µM
# [22] = RPMI 5 mM glucose + 10% FBS, 46.1 µM
# [23] = RPMI 5 mM glucose + 10% dialyzed FBS, 0.000781 µM
# [24] = RPMI 5 mM glucose + 10% dialyzed FBS, 0.00234 µM
# [25] = RPMI 5 mM glucose + 10% dialyzed FBS, 0.00702 µM
# [26] = RPMI 5 mM glucose + 10% dialyzed FBS, 0.0211 µM
# [27] = RPMI 5 mM glucose + 10% dialyzed FBS, 0.0632 µM
# [28] = RPMI 5 mM glucose + 10% dialyzed FBS, 0.19 µM
# [29] = RPMI 5 mM glucose + 10% dialyzed FBS, 0.569 µM
# [30] = RPMI 5 mM glucose + 10% dialyzed FBS, 1.71 µM
# [31] = RPMI 5 mM glucose + 10% dialyzed FBS, 5.12 µM
# [32] = RPMI 5 mM glucose + 10% dialyzed FBS, 15.4 µM
# [33] = RPMI 5 mM glucose + 10% dialyzed FBS, 46.1 µM
SMILES,cell viability [1],cell viability [2],cell viability [3],cell viability [4],cell viability [5],cell viability [6],cell viability [7],cell viability [8],cell viability [9],cell viability [10],cell viability [11],cell viability [12],cell viability [13],cell viability [14],cell viability [15],cell viability [16],cell viability [17],cell viability [18],cell viability [19],cell viability [20],cell viability [21],cell viability [22],cell viability [23],cell viability [24],cell viability [25],cell viability [26],cell viability [27],cell viability [28],cell viability [29],cell viability [30],cell viability [31],cell viability [32],cell viability [33]
CO[C@@H]1[C@@H](O)[C@H](O)[C@@H](n2c3c(Cl)cccc3c3c4c(c5c6cccc(Cl)c6[nH]c5c32)C(=O)NC4=O)O[C@H]1CO,99.7%,90.8%,105%,112%,96.9%,81.2%,54.5%,13.8%,9.51%,5.16%,5.04%,137%,118%,113%,112%,108%,70.1%,28.1%,11.5%,6.56%,4.38%,4.8%,99.2%,113%,95.1%,100%,92.4%,82.9%,43.1%,11%,7.94%,4.29%,3.62%
O=[S+]([O-])(NCCNC/C=C/c1ccc(Br)cc1)c1cccc2cnccc12,97.5%,94.8%,97.5%,42.4%,101%,89.5%,91.1%,82.3%,68.7%,43.1%,48.2%,115%,119%,115%,48.9%,114%,131%,105%,103%,62.5%,58.4%,43.7%,95.5%,96.6%,93.8%,45.3%,91.6%,87.7%,83.8%,74.5%,56.4%,41.6%,34.9%
CN(C)CCc1c[nH]c2ccc(C[S+](=O)([O-])N3CCCC3)cc12,78.9%,97.3%,91.4%,104%,97.1%,97.5%,94%,109%,97.8%,86.8%,83.6%,83.9%,93.4%,85.7%,93.7%,101%,104%,96.8%,101%,87.2%,60.5%,67.4%,87.5%,96%,91.5%,98.4%,107%,96.2%,88.5%,96.7%,84.4%,77.2%,65%
N#Cc1ccc(NC(=O)Nc2ccccc2Br)c2nn[nH]c12,81.8%,93.9%,110%,103%,107%,108%,123%,126%,125%,109%,112%,80.7%,111%,97.9%,91.4%,113%,103%,101%,101%,107%,104%,81.7%,93.1%,103%,108%,99%,116%,129%,125%,124%,121%,114%,107%
CC(C)(C)C1=CC(=C(NC(=O)C/2=C/NC3=C(C=CC=C3)C2=O)C=C1O)C(C)(C)C,122%,118%,128%,123%,113%,131%,124%,124%,109%,108%,103%,109%,108%,126%,113%,120%,111%,129%,129%,123%,116%,108%,98.7%,101%,103%,99.9%,101%,103%,115%,97.8%,110%,110%,94.7%
